Experimental data from patent publication US20150239889A1, “PYRAZOLOPYRIMIDINE COMPOUND” (MITSUBISHI TANABE PHARMA CORPORATION, priority 2012, published 2015).
Where a name gives a salt, the structure may show the parent alone.

Experiments:
[1] = target: T1, human HIF-PHD3 (Homo sapiens, UniProt Q9H6Z9); experiment: HIF-PHD inhibition assay (fluorescence polarization), human HIF-PHD3; format: biochemical; settings: 2-oxoglutaric acid 166 μmol/L
T1 construct: purchased CrystalGenomics Ltd
Method: (§1) The activity of the test compound to inhibit human HIF-PHD2 and human HIF-PHD3 was determined.
(§2) The value of enzyme activity was calculated by subtracting the value of fluorescence polarization before addition of the enzyme from the value of fluorescence polarization after addition of enzyme (mP value).
(§3) FAM: 5′-fluoresceinamide ACA: aminocaproic acid

[2] = target: T2, human HIF-PHD2 (Homo sapiens, UniProt Q9GZT9); experiment: HIF-PHD inhibition assay (fluorescence polarization), human HIF-PHD2; format: biochemical; settings: 2-oxoglutaric acid 3.33 μmol/L
T2 construct: purchased CrystalGenomics Ltd
T2 sequence (Q9GZT9 2-426 limits assumed): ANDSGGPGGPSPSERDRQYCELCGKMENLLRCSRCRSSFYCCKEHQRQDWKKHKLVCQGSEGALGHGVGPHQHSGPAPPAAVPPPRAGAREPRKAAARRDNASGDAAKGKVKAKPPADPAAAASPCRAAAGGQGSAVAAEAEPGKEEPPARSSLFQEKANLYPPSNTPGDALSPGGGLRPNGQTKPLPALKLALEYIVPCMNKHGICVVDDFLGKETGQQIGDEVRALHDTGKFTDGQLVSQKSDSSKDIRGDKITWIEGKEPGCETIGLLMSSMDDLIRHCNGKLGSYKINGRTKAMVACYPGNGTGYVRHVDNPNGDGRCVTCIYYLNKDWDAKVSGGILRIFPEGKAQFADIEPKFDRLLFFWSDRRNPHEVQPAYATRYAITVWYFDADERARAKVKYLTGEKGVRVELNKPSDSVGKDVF
Method: as §1, §2, §3

T1 sequence (Q9H6Z9 whole entry): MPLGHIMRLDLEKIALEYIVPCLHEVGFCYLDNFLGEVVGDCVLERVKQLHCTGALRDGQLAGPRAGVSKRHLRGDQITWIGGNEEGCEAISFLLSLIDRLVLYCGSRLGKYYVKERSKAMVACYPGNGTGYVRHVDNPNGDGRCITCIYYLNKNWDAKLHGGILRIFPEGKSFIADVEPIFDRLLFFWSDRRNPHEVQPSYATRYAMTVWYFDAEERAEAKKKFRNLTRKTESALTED

| IC50 [1] | IC50 [2] | Structure (SMILES) |
| --- | --- | --- |
| 1100 nM | 84 nM | O=C(O)c1cnn(-c2nc(O)c3c(cnn3CC3CCN(Cc4ccc(F)cc4)CC3)n2)c1 [Example 2, 1-(1-{[1-(4-fluorobenzyl)piperidin-4-yl]methyl}-7-hydroxy-1H-pyrazolo[4,3-d]pyrimidin-5-yl)-1H-pyrazole-4-carboxylic acid hydrochloride] |
| 360 nM | 35 nM | O=C(O)c1cnn(-c2nc(O)c3c(cnn3Cc3cccc4ccccc34)n2)c1 [Example 28] |
| 200 nM | 10 nM | Cc1ccc2cc(Cn3ncc4nc(-n5cc(C(=O)O)cn5)nc(O)c43)ccc2c1 [Example 33] |
| 95 nM | 29 nM | CC(C)c1ccccc1-c1ccc(Cn2ncc3nc(-n4cc(C(=O)O)cn4)nc(O)c32)cc1 [Example 59] |
| 77 nM | 28 nM | O=C(O)c1cnn(-c2nc(O)c3c(cnn3Cc3ccc(-c4ccccc4C4CC4)cc3)n2)c1 [Example 60] |
| 110 nM | 16 nM | Cc1cc(Cl)ccc1-c1ccc(Cn2ncc3nc(-n4cc(C(=O)O)cn4)nc(O)c32)cc1 [Example 71] |
| 280 nM | 28 nM | O=C(O)c1cnn(-c2nc(O)c3c(cnn3Cc3ccc(-c4ccc(Cl)cc4Cl)cc3)n2)c1 [Example 72] |
| 270 nM | 31 nM | O=C(O)c1cnn(-c2nc(O)c3c(cnn3Cc3ccc(-c4ccc(C(F)(F)F)cc4Cl)cc3)n2)c1 [Example 73] |
| 72 nM | 20 nM | O=C(O)c1cnn(-c2nc(O)c3c(cnn3Cc3ccc(-c4ccc(Cl)cc4F)cc3)n2)c1 [Example 74] |
| 120 nM | 20 nM | O=C(O)c1cnn(-c2nc(O)c3c(cnn3Cc3ccc(-c4cccc(Cl)c4Cl)cc3)n2)c1 [Example 75] |
| 130 nM | 32 nM | O=C(O)c1cnn(-c2nc(O)c3c(cnn3Cc3ccc(-c4ccc(F)cc4F)cc3F)n2)c1 [Example 82] |
| 44 nM | 8.6 nM | Cc1cc(-c2ccccc2F)ccc1Cn1ncc2nc(-n3cc(C(=O)O)cn3)nc(O)c21 [Example 88] |
| 36 nM | 20 nM | COc1cc(-c2ccccc2F)ccc1Cn1ncc2nc(-n3cc(C(=O)O)cn3)nc(O)c21 [Example 90] |
| 50 nM | 11 nM | Cc1cc(Cn2ncc3nc(-n4cc(C(=O)O)cn4)nc(O)c32)ccc1-c1ccccc1 [Example 92] |
| 89 nM | 16 nM | O=C(O)c1cnn(-c2nc(O)c3c(cnn3Cc3cc(F)c(-c4ccccc4F)cc3F)n2)c1 [Example 100] |
| 220 nM | 18 nM | Cc1cc(Cn2ncc3nc(-n4cc(C(=O)O)cn4)nc(O)c32)c(F)cc1-c1ccccc1F [Example 103] |
| 610 nM | 210 nM | CC(C)(Cn1ncc2nc(-n3cc(C(=O)O)cn3)nc(O)c21)c1ccc(Cl)c(Cl)c1 [Example 121] |
| 910 nM | 110 nM | O=C(O)c1cnn(-c2nc(O)c3c(cnn3CC(F)(F)c3ccc(Cl)cc3)n2)c1 [Example 125] |
| 360 nM | 10 nM | O=C(O)c1cnn(-c2nc(O)c3c(cnn3CCCOc3ccc(Cl)cc3)n2)c1 [Example 184] |
| 420 nM | 38 nM | C[C@@H](c1cccc(C(F)(F)F)c1)n1ncc2nc(-n3cc(C(=O)O)cn3)nc(O)c21 [Example 258] |
| 890 nM | 100 nM | C[C@H](c1cc(Cl)cc(C(F)(F)F)c1)n1ncc2nc(-n3cc(C(=O)O)cn3)nc(O)c21 [Example 268] |
| 370 nM | 42 nM | C[C@@H](c1cc(Cl)cc(C(F)(F)F)c1)n1ncc2nc(-n3cc(C(=O)O)cn3)nc(O)c21 [Example 269] |
| 440 nM | 48 nM | C[C@H](c1ccc(Cl)c(F)c1)n1ncc2nc(-n3cc(C(=O)O)cn3)nc(O)c21 [Example 270] |
| 260 nM | 12 nM | C[C@@H](c1ccc(Cl)c(F)c1)n1ncc2nc(-n3cc(C(=O)O)cn3)nc(O)c21 [Example 271] |
| 980 nM | 79 nM | C[C@@H](c1cc(C(F)(F)F)cc(C(F)(F)F)c1)n1ncc2nc(-n3cc(C(=O)O)cn3)nc(O)c21 [Example 272] |
| 520 nM | 92 nM | C[C@H](c1cc(F)cc(C(F)(F)F)c1)n1ncc2nc(-n3cc(C(=O)O)cn3)nc(O)c21 [Example 273] |
| 380 nM | 38 nM | C[C@@H](c1cc(F)cc(C(F)(F)F)c1)n1ncc2nc(-n3cc(C(=O)O)cn3)nc(O)c21 [Example 274] |
| 920 nM | 120 nM | C[C@@H](c1cc(C(F)(F)F)ccc1C(F)(F)F)n1ncc2nc(-n3cc(C(=O)O)cn3)nc(O)c21 [Example 275] |
| 380 nM | 15 nM | C[C@@H](c1ccc(OC(F)(F)F)cc1)n1ncc2nc(-n3cc(C(=O)O)cn3)nc(O)c21 [Example 276] |

The next lines start with the compound.

| Structure (SMILES) | IC50 [1] | IC50 [2] |
| --- | --- | --- |
| CC1(C)CCCC(n2ncc3nc(-n4cc(C(=O)O)cn4)nc(O)c32)C1 (single isomer, unassigned) [Example 412] | 590 nM | 43 nM |
| CCC1CCCC(n2ncc3nc(-n4cc(C(=O)O)cn4)nc(O)c32)C1 (single isomer, unassigned) [Example 414] | 820 nM | 33 nM |
| CCC1CCCC(n2ncc3nc(-n4cc(C(=O)O)cn4)nc(O)c32)C1 (single isomer, unassigned) [Example 416] | 530 nM | 18 nM |
| CC1(C)CCCC1n1ncc2nc(-n3cc(C(=O)O)cn3)nc(O)c21 (single isomer, unassigned) [Example 418] | 910 nM | 83 nM |
| O=C(O)c1cnn(-c2nc(O)c3c(cnn3CC3(c4ccccc4)CCCC3)n2)c1 [Example 123] | 580 nM | 130 nM |
| O=C(O)c1cnn(-c2nc(O)c3c(cnn3CC3CCC(F)(F)CC3)n2)c1 [Example 143] | 1200 nM | 15 nM |
| C[C@H](C1CCCCC1)n1ncc2nc(-n3cc(C(=O)O)cn3)nc(O)c21 [Example 145] | 1700 nM | 30 nM |
| Cc1cccc(OCCCn2ncc3nc(-n4cc(C(=O)O)cn4)nc(O)c32)c1C [Example 180] | 170 nM | 19 nM |
| O=C(O)c1cnn(-c2nc(O)c3c(cnn3CCCOc3ccc(C4CCCCC4)cc3)n2)c1 [Example 185] | 330 nM | 15 nM |
| COc1cccc(OCCCn2ncc3nc(-n4cc(C(=O)O)cn4)nc(O)c32)c1 [Example 186] | 430 nM | 20 nM |
| Cc1c(OCCCn2ncc3nc(-n4cc(C(=O)O)cn4)nc(O)c32)ccc2c1CCCC2 [Example 190] | 260 nM | 14 nM |
| O=C(O)c1cnn(-c2nc(O)c3c(cnn3CCCOc3ccc4c(c3)CCC4)n2)c1 [Example 195] | 460 nM | 22 nM |
| CC[C@H]1CC[C@H](Cn2nc(F)c3nc(-n4cc(C(=O)O)cn4)nc(O)c32)CC1 [Example 219] | 1400 nM | 11 nM |
| O=C(O)c1cnn(-c2nc(O)c3c(n2)c(Cl)nn3CC2CCCC2)c1 [Example 221] | 670 nM | 44 nM |
| CC(C)(C)[C@H]1CC[C@H](Cn2nc(Cl)c3nc(-n4cc(C(=O)O)cn4)nc(O)c32)CC1 [Example 225] | 150 nM | 22 nM |
| Cc1nn(C2CCCCC2)c2c(O)nc(-n3cc(C(=O)O)cn3)nc12 [Example 227] | 3800 nM | 130 nM |
| Cc1nn(CC2CCCC2)c2c(O)nc(-n3cc(C(=O)O)cn3)nc12 [Example 229] | 2800 nM | 50 nM |

| Structure (SMILES) | IC50 [1] | IC50 [2] |
| --- | --- | --- |
| Cc1nn(CCC2CCCCC2)c2c(O)nc(-n3cc(C(=O)O)cn3)nc12 [Example 231] | 470 nM | 21 nM |
| CCc1nn(CC2CCCCC2)c2c(O)nc(-n3cc(C(=O)O)cn3)nc12 [Example 232] | 1400 nM | 150 nM |
| CC(C)c1nn(CC2CCCCC2)c2c(O)nc(-n3cc(C(=O)O)cn3)nc12 [Example 233] | 2800 nM | 120 nM |
| O=C(O)c1cnn(-c2nc(O)c3nn(CC4(COc5ccc6c(c5)CCCC6)CC4)cc3n2)c1 [Example 249] | 280 nM | 26 nM |
| C[C@@H](c1ccc(F)c(Cl)c1)n1ncc2nc(-n3cc(C(=O)O)cn3)nc(O)c21 [Example 250] | 180 nM | 49 nM |
| C[C@@H](c1ccc(F)c(F)c1)n1ncc2nc(-n3cc(C(=O)O)cn3)nc(O)c21 [Example 251] | 470 nM | 55 nM |
| C[C@@H](c1ccc(F)cc1Cl)n1ncc2nc(-n3cc(C(=O)O)cn3)nc(O)c21 [Example 252] | 630 nM | 99 nM |
| C[C@@H](c1cccc(Cl)c1)n1ncc2nc(-n3cc(C(=O)O)cn3)nc(O)c21 [Example 253] | 600 nM | 71 nM |
| C[C@@H](c1cccc(F)c1)n1ncc2nc(-n3cc(C(=O)O)cn3)nc(O)c21 [Example 254] | 510 nM | 97 nM |
| C[C@@H](c1ccc(F)cc1F)n1ncc2nc(-n3cc(C(=O)O)cn3)nc(O)c21 [Example 255] | 540 nM | 64 nM |
| C[C@@H](c1ccccc1Cl)n1ncc2nc(-n3cc(C(=O)O)cn3)nc(O)c21 [Example 257] | 870 nM | 200 nM |
| Cc1ccc([C@H](C)n2ncc3nc(-n4cc(C(=O)O)cn4)nc(O)c32)cc1C [Example 259] | 690 nM | 44 nM |
| COc1ccc([C@H](C)n2ncc3nc(-n4cc(C(=O)O)cn4)nc(O)c32)cc1 [Example 260] | 950 nM | 48 nM |
| Cc1cccc([C@H](C)n2ncc3nc(-n4cc(C(=O)O)cn4)nc(O)c32)c1 [Example 262] | 360 nM | 29 nM |
| Cc1ccccc1[C@H](C)n1ncc2nc(-n3cc(C(=O)O)cn3)nc(O)c21 [Example 265] | 780 nM | 160 nM |
| Cc1cc(Cl)cc([C@H](C)n2ncc3nc(-n4cc(C(=O)O)cn4)nc(O)c32)c1 [Example 267] | 530 nM | 86 nM |
